Experiments:
Type in all cases: cell-based
DU145 cells = assay: Annexin V flow cytometry in DU145 cells; details: 5 hours post-treatment, FIG. 11
Protocol: Cells treated with or without compound were harvested at 5 hours post treatment for Annexin-V staining. Collected cells were washed with PBS and resuspended in Annexin-V-FITC containing buffer and stained according to manufactures directions (Roche). Annexin-V positive cells were determined by Flow cytometry.
Additionally, DU145 cells were first treated with DMSO or the indicated concentrations of compound 401, then stained with Annexin V, and followed by Flow cytometry analysis 5 hours post-treatment.

HT29 colon cancer cells = assay: Colony formation assay, HT29; details: Homo sapiens, HT-29, similar conditions
CD34^+ BM Erythroid = assay: Colony formation assay, CD34+ bone marrow erythroid lineage
Excerpt: In a similar fashion to PMBCs, CD34^+ bone marrow hematopoietic stem cells were spared when treated with compound 401.

CD133^+ cells = assay: Cleaved-Caspase 3 staining of CD133+ cells; details: FIG. 9B
Excerpt: Sorting tumor cells based primarily upon the differential expression of the surface marker(s), such as CD44 or CD133, have accounted for the majority of the highly tumorigenic CSCs described to date. CD133 isolation is based upon the method of Ricci-Vitiani et al., with slight modification. CD133^+ cells were isolated by either fluorescence activated cell sorting (FACS) or magnetic nanoparticle-based separation. Briefly, […] were labeled with CD133/1 (AC133)-PE for FACS-based cell sorting; or with CD133/1 (AC133)-biotin (Miltenyi Biotec, Auburn, Calif.) for magnetic field-based separation using the EasySep® biotin selection kit (Miltenyi Biotec) according to the manufacturer's recommendations. Non-specific labeling was blocked with the supplied FcR blocking reagent and antibody incubations (1:11) were carried out on ice for 15 minutes in PBS with 2% FBS and 1 mM EDTA. Five washes were done for EasySep® isolation, whereas cells were pelleted at 400×g for 5 minutes and resuspended at 2×10^7/mL, before sorting by FACS.
Cells treated with indicated compound for an indicated time were either fixed in 4% formaldehyde or cold methanol for the detection of Annexin V, cleaved caspase 3, or stat3, respectively. Coverslips were air dried and rehydrated in PBS at room temperature for 10 min. […]

CD44^high CSCs = assay: Sphere assay with CD44high CSCs; details: spheres grown 72 hours before challenge, FIGS. 10A and 10B
Protocol: A reliable method of measuring the self-renewal capacity of cell population if the ability to be cultured as spheres in the absence of serum or attachment. CD44^high FaDu or Hoechst side population cancer stem cells were cultured in ultra low attachment plates in cancer stem cell media (DMEM/F12, B27 Neurobasal supplement, 20 ng/ml EGF, 10 ng/ml FGF, 4 μg/ml insulin, and 0.4% BSA) to allow spheres formation. Typically, sphere formation was evaluated by microscopy after 10-14 days in culture and spheres with >50 cells were scored.
One of the hallmarks cancer stem cells is their ability to self-renew. A reliable method of measuring the self-renewal capacity of cell populations is the ability to be cultured as spheres in the absence of serum or attachment. To compare the ability of compound 401 to other targeted and chemotherapeutic agents, FACS-isolated CD44^high CSCs were grown as spheres for 72 hours before being challenged with a panel of therapeutic agents. […] Tarceva, Sutent, and Gleevec were added at approximately three times their reported therapeutic concentrations.

[1] = system: Peripheral blood mononuclear cells (PBMCs); assay: MTT cell viability of normal PBMCs; details: PBMC, 24 hour incubation
Protocol: For 3-(4,5 dimethylthiazol-2-yl)-2,5-diphenyltetrazolium (MTT) (Sigma-Aldrich, St. Louis, Mo.) analysis, cells were plated in 96 well plates at 10,000 cells per well. 24 hours after plating, compound was added to cells at indicated doses. 22 hours following compound addition, MTT was added to each well (0.5 mg/ml, final concentration) and plates were incubated for an additional 2 hours at 37° C. Medium was then aspirated and the formazan product was solubilized in 100 μl of isopropyl alcohol. The absorbance of each well was measured at 570 nm using a microplate reader.
Under assay conditions that result in the death of virtually all cancer cells, normal cells remain substantially viable.

IC50 (HT29 colon cancer cells): < 0.5 µM
Structure (SMILES): CC(=O)c1cc2c(o1)C(=O)c1ccccc1C2=O [Compound 401, 2-acetylnaphtho[2,3-b]furan-4,9-dione]
Annexin V staining (DU145 cells): dose-dependent increase in the Annexin V staining
therapeutic window (CD34^+ BM Erythroid; CD34+ bone marrow cells vs DU145 and HT29, in vitro): greater than 50 fold
IC50 (CD34^+ BM Erythroid; normal cells, 6 hours incubation, colony formation): > 30 µM
cleaved-Caspase 3 staining (CD133^+ cells): many of the CD133^+ cells become cleaved-Caspase 3 positive
prevention of sphere proliferation (CD44^high CSCs): effective at preventing sphere proliferation
IC50 [1]: 14 µM

— patent US20210024482A1, “Novel Group of STAT3 Pathway Inhibitors and Cancer Stem Cell Pathway Inhibitors” (Sumitomo Dainippon Pharma Oncology, Inc., priority 2007, published 2021)
